We go through 23 molecules from patent US20220087996A1, “Histone acetylase p300 inhibitor and use thereof” (HINOVA PHARMACEUTICALS INC., priority 2018, published 2022).

As usually defined, the pIC50 is the IC50 on a negative log10 scale, so that one unit is a factor of ten.

pIC50: −log10 of the molar value.

The first assay deals with CWR22RV1 cells. Nature of the assay: Inhibition of proliferation of CWR22RV1 cells (CCK-8). Type of assay: cell-based, human. The note with it: 6 days culture, read-out: IC50 against CWR22RV1 cells. Here is the method: 1) CWR22RV1 cells were subcultured in cell culture medium, and the cells in good growth condition were seeded in a 96-well plate, 80 μL for each well, and the cell number in each well was 1500. The plate was incubated overnight in a 37° C., 5% CO2 cell incubator. 2) The drug was prepared as 30 mM stock solution with dimethyl sulfoxide (DMSO). Prior to use, the stock solution was diluted 3 times with DMSO, and then further diluted as 3-fold gradient to obtain 9 concentration gradients. Then, each concentration of compound was diluted 200 times with the culture solution (ensuring that the DMSO concentration in the culture system was 0.1%), and two replicate wells were set for each concentration. 20 μL of diluted compound solution was added to the cell culture well (with final concentrations of 10 μM, 3.3 μM. 1.1 μM . . . ), and the plate was gently shaken to mix. In addition, 3 negative control wells containing only cells and 3 blank control wells containing only culture medium were included (6 wells were each added 20 μL DMSO diluted 200 times with culture medium). 2. Result detection: (1) After culturing for 6 days, 10 μL CCK-8 was added to each well, and the plate was continually cultured in a 37° C., 5% CO2 cell incubator for 2.5 h. (2) The absorbance (OD value) was detected at 450 nm using a multifunctional microplate reader. (3) The data were analyzed by Dose-response-inhibition equation in the software GraphPad Prism6, and the IC50 value was obtained.
Regarding “1-(2′,4′-dioxo-3′-(2-oxo-2-((S)-2-phenylpyrrolidin-1-yl)ethyl)-2,3-dihydrospiro[cyclopropane-indene-1,5′-oxazolidine]-5-yl)-3-methylurea [Example 325]”, the negative-log IC50 (pIC50) is under 5.70.

Regarding `CNC(=O)Nc1ccc2c(c1)CC[C@@]21OC(=O)N(CC(=O)N2C(c3ccc(F)c(Cl)c3)CC[C@@H]2C)C1=O` (stereo in doubt) [Example 369, 1-((R)-3′-(2-((2R,5S)-2-(3-chloro-4-fluorophenyl)-5-methylpyrrolidin-1-yl)-2-oxoethyl)-2′,4′-dioxo-2,3-dihydrospiro[indene-1,5′-oxazolidine]-5-yl)-3-methylurea], the pIC50 is under 5.70. Regarding `CNC(=O)Nc1ccc2c(c1)CC[C@@]21OC(=O)N(CC(=O)N2C[C@@H]3C[C@H]2CN3C(=O)OC(C)(C)C)C1=O` [Example 10, (1S,4S)-5-(2-((R)-5-(3-methylureido)-2′,4′-dioxo-2,3-dihydrospiro[indene-1,5′-oxazolidine]t-butyl-3′-yl)acetyl)-2,5-diazabicyclo[2.2.1]heptane-2-carboxylic Acid t-Butyl Ester], the negative-log IC50 (pIC50) is under 5.70. Still for that read-out and setting: as for `CNC(=O)Nc1ccc2c(c1)CC[C@@]21OC(=O)N(CC(=O)N2CCCC2c2ccccc2C)C1=O` (stereo partly drawn) [Example 11, 1-((1R)-2′,4′-dioxo-3′-(2-oxo-2-(2-(o-tolyl)pyrrolidin-1-yl)ethyl)-2,3-dihydrospiro[indene-1,5′-oxazolidine]-5-yl)-3-methylurea], the figure is 5.70 to 6.30; as for `CNC(=O)Nc1ccc2c(c1)CC[C@@]21OC(=O)N(CC(=O)N2C(c3ccc(F)cc3)CCC2(C)C)C1=O` (stereo partly drawn) [Example 39, 1-((R)-3′-(2-(5-(4-fluorophenyl)-2,2-dimethylpyrrolidin-1-yl)-2-oxoethyl)-2′,4′-dioxo-2,3-dihydrospiro[indene-1,5′-oxazolidine]-5-yl)-3-methylurea], 5.70 to 6.30.

Staying with this assay, now noted: Homo sapiens, CWR22Rv1, 144 h, 6 days culture, read-out: IC50 against CWR22RV1 cells.
As to `CNC(=O)Nc1ccc2c(c1)CC[C@@]21OC(=O)N(CC(=O)N2C(c3ccc(F)cc3)CC[C@@H]2CO)C1=O` (mixture of isomers) [Example 360, 1-((R)-3′-(2-((R)-2-(4-fluorophenyl)-5-(hydroxymethyl)pyrrolidin-1-yl)-2-oxoethyl)-2′,4′-dioxo-2,3-dihydrospiro[indene-1,5′-oxazolidine]-5-yl)-3-methylurea], the pIC50 is under 5.70. On to `CNC(=O)Nc1ccc2c(c1)CC[C@@]21OC(=O)N(CC(=O)N2CCCC2c2ccccc2OC)C1=O` (single isomer, unassigned) [Example 338], for which the pIC50 is under 5.70. On to `CNC(=O)Nc1ccc2c(c1)CC[C@]21OC(=O)N(CC(=O)N2CCCC[C@@H]2c2ccccc2)C1=O` [Example 1], for which the pIC50 was under 5.70. For `CNC(=O)Nc1ccc2c(c1)CC[C@@]21OC(=O)N(CC(=O)N2CCCC[C@@H]2c2ccccc2)C1=O` [Example 2], the pIC50 is under 5.70. Regarding `CNC(=O)Nc1ccc2c(c1)CC[C@@]21OC(=O)N(CC(=O)N2C3CCCC2CC3)C1=O` [Example 3], the negative logarithm of the IC50 (pIC50) was under 5.70. As for `CNC(=O)Nc1ccc2c(c1)CC[C@]21OC(=O)N(CC(=O)N2CCCC[C@H]2c2ccccc2)C1=O` [Example 4], the pIC50 is under 5.70.

For the molecule `CNC(=O)Nc1ccc2c(c1)CC[C@@]21OC(=O)N(CC(=O)N2CCCC[C@H]2c2ccccc2)C1=O` [Example 5, 1-((R)-2′,4′-dioxo-3′-(2-oxo-2-((S)-2-phenylpiperidin-1-yl)ethyl)-2,3-dihydrospiro[indene-1,5-oxazolidine]-5-yl)-3-methylurea], the pIC50 was under 5.70. In the case of `CNC(=O)Nc1ccc2c(c1)CC[C@@]21OC(=O)N(CC(=O)N2C3CCC2CC3)C1=O` [Example 7, 1-((R)-3′-(2-((1S,4S)-7-azabicyclo[2.2.1]heptan-7-yl)-2-oxoethyl)-2′,4′-dioxo-2,3-dihydrospiro[indene-1,5′-oxazolidine]-5-yl)-3-methylurea], the pIC50 was under 5.70. Same read-out and setting: for `CNC(=O)Nc1ccc2c(c1)CC[C@@]21OC(=O)N(CC(=O)N2CCC[C@H]2c2ccc(F)cc2C)C1=O` [Example 8, 1-((R)-3′-(2-((S)-2-(4-fluoro-2-methylphenyl)pyrrolidin-1-yl)-2-oxoethyl)-2′,4′-dioxo-2,3-dihydrospiro[indene-1,5′-oxazolidine]-5-yl)-3-methylurea] the value was 5.70 to 6.30; for `CNC(=O)Nc1ccc2c(c1)CC[C@@]21OC(=O)N(CC(=O)N2CCCC3CCCCC32)C1=O` (stereo partly drawn) [Example 12, 1-methyl-3-((1R)-3′-(2-(octahydroquinolin-1-(2H)-yl)-2-oxoethyl)-2′,4′-dioxo-2,3-dihydrospiro[indene-1,5′-oxazolidine]-5-yl)urea], under 5.70; for `CNC(=O)Nc1ccc2c(c1)CC[C@@]21OC(=O)N(CC(=O)N2CCCC2c2ccccc2OC(F)(F)F)C1=O` (stereo partly drawn) [Example 13, 1-((1R)-2′,4′-dioxo-3′-(2-oxo-2-(2-(2-(trifluoromethoxyl)phenyl)pyrrolidin-1-yl)ethyl)-2,3-dihydrospiro[indene-1,5′-oxazolidine]-5-yl)-3-methylurea], under 5.70.

On to `CNC(=O)Nc1ccc2c(c1)CC[C@@]21OC(=O)N(CC(=O)N2C(c3ccc(F)cc3)CC[C@@H]2C)C1=O` (stereo partly drawn) [Example 15, 1-((R)-3′-(2-((5S)-2-(4-fluorophenyl)-5-methylpyrrolidin-1-yl)-2-oxoethyl)-2′,4′-dioxo2,3-dihydrospiro[indene-1,5′-oxazolidine]-5-yl)-3-methylurea], for which the negative logarithm of the IC50 (pIC50) was at least 6.30.

With `CNC(=O)Nc1ccc2c(c1)CCC21OC(=O)N(CC(=O)N2CC3CCC2C3)C1=O` (stereo not shown) [Example 16, 1-(3′-(2-(2-azabicyclo[2.2.1]heptan-2-yl)-2-oxoethyl)-2′,4′-dioxo-2,3-dihydrospiro[indene-1,5′-oxazolidine]-5-yl)-3-methylurea], the pIC50 was under 5.70. As for `CNC(=O)Nc1ccc2c(c1)CC[C@@]21OC(=O)N(CC(=O)N2C(c3ccc(F)cc3)CC[C@H]2C)C1=O` (stereo partly drawn) [Example 18, 1-((R)-3′-(2-((5R)-2-(4-fluorophenyl)-5-methylpyrrolidin-1-yl)-2-oxoethyl)-2′,4′-dioxo-2,3-dihydrospiro[indene-1,5′-oxazolidine]-5-yl)-3-methylurea], the pIC50 was at least 6.30.

For `CNC(=O)Nc1ccc2c(c1)C1(CC1)CC21OC(=O)N(CC(=O)N2C(C)CCC2c2ccc(F)cc2)C1=O` (stereo not shown) [Example 97, 1-(3′-(2-(2-(4-fluorophenyl)-5-methylpyrrolidin-1-yl)-2-oxoethyl)-2′,4′-dioxo-2,3-dihydrospiro[cyclopropane-1,1′-indene-1,5′-oxazolidine]-5-yl)-3-methylurea], the negative logarithm of the IC50 (pIC50) is under 5.70. Turning to `CNC(=O)Nc1ccc2c(c1)CC[C@@]21OC(=O)N(CC(=O)N[C@]23C[C@H]4C[C@H](C[C@H](C4)C2)C3)C1=O` [Example 99], the pIC50 is under 5.70. On the same count and under the same terms, as for `CNC(=O)Nc1ccc2c(c1)CC[C@@]21OC(=O)N(CC(=O)N2CCc3ccccc3C2)C1=O` [Example 100, (R)-1-(3′-(2-(3,4-dihydroisoquinolin-2(1H)-yl)-2-oxoethyl)-2′,4′-dioxo-2,3-dihydrospiro[indene 1,5′-oxazolidine]-5-yl)-3-methylurea], the figure is under 5.70; as for `CNC(=O)Nc1ccc2c(c1)CC[C@@]21OC(=O)N(CC(=O)N2C[C@@H]3C[C@@H]2CO3)C1=O` [Example 103], under 5.70.

The same assay, now with this note: Homo sapiens, CWR22Rv1, 144 h, 6 days culture, read-out: IC50 against CWR22RV1 cells (text).
For `CNC(=O)Nc1ccc2c(c1)CC[C@@]21OC(=O)N(CC(=O)N2C(c3ccc(F)cc3)CC[C@@H]2C)C1=O` (stereo partly drawn) [Example 15, 1-((R)-3′-(2-((5S)-2-(4-fluorophenyl)-5-methylpyrrolidin-1-yl)-2-oxoethyl)-2′,4′-dioxo2,3-dihydrospiro[indene-1,5′-oxazolidine]-5-yl)-3-methylurea], the pIC50 was at least 6.30. For `CNC(=O)Nc1ccc2c(c1)CC[C@@]21OC(=O)N(CC(=O)N2C(c3ccc(F)cc3)CC[C@H]2C)C1=O` (stereo partly drawn) [Example 18, 1-((R)-3′-(2-((5R)-2-(4-fluorophenyl)-5-methylpyrrolidin-1-yl)-2-oxoethyl)-2′,4′-dioxo-2,3-dihydrospiro[indene-1,5′-oxazolidine]-5-yl)-3-methylurea], the pIC50 is at least 6.30.
